From patent US12377069B2, “Compounds, compositions, methods of using, and methods for preparing compounds” (UNIVERSITY OF LOUISVILLE RESEARCH FOUNDATION, INC., priority 2018, dated 2025)

Assays:
[1] = system: BMDM; experiment: Nrf2-dependent pathways in macrophages; assay type: cell-based, mouse; details: 50 μM
Procedure: The data is separately presented for each time point (No TNBS− Solid black line; Veh+TNBS− Solid red line; UroA+TNBS− Solid blue line; UAS03+TNBS− Solid purple line). The data is separately presented for each time point. (No TNBS− Solid black line; Veh+TNBS− Solid red line; UroA+TNBS− Solid blue line; UAS03+TNBS− Solid purple line). (C-G) UroA/UAS03 activate Nrf2-dependent pathways in BMDM. (C) Wild type BMDM were isolated and cultured for 7 days. BMDM were treated with Veh (0.01% DMSO) or UroA or UAS03 (50 μM) for 6 h and total RNA was isolated. Nrf2 levels were measured using SyBR green Real Time PCR method. (D) Veh or UroA or UAS03 treated BMDM cell lysates were immunoblotted for Nrf2. (E) The nuclear and cytosolic fractions of BMDMs were immnunobloted for Nr2. Lamin B and β-actin were used as normalizing proteins. […] The expression of Nrf2 was determined by immunofluorescence staining using anti-Nrf2 followed by secondary antibody tagged with Alexa-488 dye and DAPI was used to stain nucleus. The fluorescence images were captured using Nikon A1R confocal microscope at 60× magnification and green fluorescence (n=>15 cells) was measured using Nikon elements software. […] NF-κB activation was evaluated by EMSA assays. […] The fold change over basal was calculated using its own control. […]

[2] = system: colon cancer cell line (SW480); experiment: Proliferation assay with 5FU; details: for effect on cell proliferation, compound alone: without 5FU
[3] = system: Nrf2^−/− mice; experiment: TNBS-induced colitis in Nrf2^−/− mice; assay type: in vivo, mouse; details: 20 mg/kg every 12 h post TNBS
Procedure: FIG. 7: UroA/UAS03 utilize Nrf2 pathways to mitigate colitis. (A-F) Colitis was induced using TNBS in C57BL/6 (WT) and Nrf2^−/− mice (n=4-5/group 7-8 week old age). Mice were treated with Veh or UroA/UAS03 (20 mg/kg bodyweight) every 12 h post TNBS administration ending at 72 h. Representative data from two independent experiments is shown. (A) TNBS-induced colitis experimental design and treatment regimen. (B) Percent body weight loss (No TNBS− Solid black line; Veh+TNBS− Solid red line; UroA+TNBS− Solid blue line; UAS03+TNBS− Solid purple line), (C) representative colon images, (D) colon lengths, (E) gut permeability, (F) serum levels of IL-6 and TNF-α were determined. Statistical analysis was performed (unpaired t-test) using Graphpad Prism software. Error bars, ±SEM ***p<0.001; **p<0.01 *p<0.05.
2,4,6-Trinitrobenzenesulfonic acid (TNBS)-induced colitis: Male C57BL/6 or Nrf2^−/− mice (6-8 week old age mice) were anesthetized with ketamine/xylazine (100 mg/12.5 mg/kg IP) mixture and administered with single dose of TNBS (2.5 mg/mice; Sigma Aldrich, USA) in 50% ethanol. After administration of TNBS, mice were held upside down for 30-60 sec to ensure proper distribution of TNBS in the colon. Control group received 50% ethanol without TNBS. Mice with TNBS were randomly divided into three groups, viz. vehicle (0.25% sodium carboxymethylcellulose (CMC)), UroA and UAS03. UroA or UAS03 was resuspended in 0.25% sodium-CMC at desired concentrations. The mice were given orally Veh or UroA or UAS03 in 100 μl at desired concentrations (4 or 20 mg/kg/body weight). The treatment started after 12 hours of TNBS administration and every 12 hours thereafter up to 72 hours. The experiment was terminated post 60 h TNBS, where AhR^−/− mice were involved. In some experiments, we treated only once at post 12 h TNBS administration. TNBS administered and control mice were euthanized for tissue and plasma collection after 80 hours of TNBS/ethanol treatment. Mice were examined for colitis phenotype.

Compound	Nrf2 expression, nuclear translocation and HO1 in macrophages [1]	fold less 5FU drug concentration to reach the similar effect ([2]; combination with 5FU)	increase in the inhibition of cell proliferation ([2]; with 3.12 μM of 5FU)	cell viability in combination with 5FU ([2]; with 5FU) [%]	effect on cell proliferation, compound alone [2]	barrier function (FITC-dextran leakage) in Nrf2^−/− mice [3]	body weight loss and colon shortening in Nrf2^−/− mice [3]	serum IL-6 and TNF-α levels in Nrf2^−/− mice [3]
Oc1ccc2c(c1)COc1cc(O)ccc1-2 [UAS03, 6H-benzo[c]chromene-3,8-diol]	upregulated Nrf2 expression and induced its nuclear translocation	more than 32 fold	approximately 6 fold	40	minimal effect	did not enhance barrier function	did not appear to restore body weight loss	partially reduced
O=c1oc2cc(O)ccc2c2ccc(O)cc12 [UroA, 3,8-dihydroxy-6H-dibenzo[b,d]pyran-6-one]	upregulated Nrf2 expression and induced its nuclear translocation				minimal effect	did not enhance barrier function	did not appear to restore body weight loss	partially reduced
